The test system of one series is HeLa cells. The series is described as follows: HeLa Proliferation assay (CellTiter Glo). The series is classed as cell-based. As to conditions: 72 hours. As to the method:
HeLa cells (ATCC® CCL2™) in DMEM (Dulbecco Modified Eagle's Medium) without phenol red, Thermo, 11880, USA + 10% FBS + 1X PenStrep + 1X Gln or HUVEC cells (ATCC® CRL1730™) in EBM-2 (Endothelial Growth Basal Medium, Lonza, CC3156) + EGM-2 SingleQuotsTMSupplements and Growth Factors (Lonza, CC4176) + 1X Penicyllin-Streptomycin (PenStrep, ThermoFisher) + 1X Glutamine, are plated in a 384 well plate (Thermo, 4334-11, USA) to a density of 2000 cells per well and let recover for four hours at 37 °C, 5% CO2 in a humidified atmosphere. After the recovery, compounds are transferred to assay plates as per compound preparation method. Assay plates are then incubated at 37 °C, 5% CO2 in a humidified atmosphere for 72 hours. Cell viability is measured by the CellTiter Glo (Promega, G8080, USA) as per manufacturer instruction.
For orientation: In ATP-based viability assays light output follows the ATP content of the culture.

Series [1] concerns Peripheral blood mononuclear cells (PBMC). Type of series: cell-based. As to conditions: human, 7 days. As to the method: Peripheral blood mononuclear cells (PBMC) obtained from healthy donors by separation over Ficoll-Hypaque (GEHealthear-Cat.# GEH17-1440-02) were suspended at 2x10^6 cells/mL in RPMI 1640 (Biowest-Cat.#L0501-500) supplemented with 10% of heat-inactivated sterile fetal bovine serum (Gibco-Cat.#10270-106), 2 mmol/l L-glutamine (Biowest-Cat.#X0550-100), 50 U/mL Penicillin-50 µg/mL Streptomycin (Biowest-Cat.#L0022-100), referred to as complete medium (CM). PBMC were supplemented with 5 µg/mL of phytohaemagglutinin (Sigma Aldr-Cat.#L1668) and cultured in 75 cm^2 flasks (Sarsted-Cat.#833.911.002) for 2 days at 37 °C in a humidified atmosphere with 5% CO2.
PBMC were then washed in CM, counted by trypan blue exclusion (Gibco-Cat. #15250-061), centrifuged and suspended in fresh CM supplemented with 20 IU/mL recombinant human IL-2 (Miltenyi Biotec-Cat.#130-097-748) and seeded in a 96-well-tissue culture plate (Sarsted-Ca#831.837) at the density of 5x10^5 cells/mL (or 1x10^5 cells in 200 µL final CM volume per well). Cells were left untreated (negative control) or treated with different concentrations of the compounds.
After 7 days of incubation cytotoxicity was determined using Promega's CellTiter 96(R) AQueous One Solution Cell Proliferation Assay (MTS assay) (Promega-Cat.#G3581) according to the manufacturer's instuctions. This is a colorimetric method for determining the number of viable cells in proliferation or cytotoxicity assays. The MTS tetrazolium compound is bioreduced by cells into a colored formazan product that is soluble in tissue culture medium. This conversion is presumably accomplished by NADPH or NADH produced by dehydrogenase enzymes in metabolically active cells.
Briefly, MTS solution was thawed at room temperature, or in a water bath at 37 °C and 40 µL of MTS solution was pipeted into each well of the 96-well assay plate containing the samples in 200 µL of culture medium and incubated at 37 °C, 5% CO2 for 4 hours. The optical density was read at 490 nm using a 96-well plate reader (Tecan Infinite F50) and TD50 (toxic dose 50%, dose killing 50% of the cells compared to untreated control) value was calculated by interpolation of the curve obtained by plotting dose against percent mortality and by using "Magellan data analysis software". CM alone plus MTS solution was used as a blank, and cell culture well without compound was used as a cellular control.

SMILES strings stand for the structures.

`Cc1cccnc1-c1nc(O)c(O)c(C(=O)N[C@H](C)C2CCCCC2)n1` [Compound 23, (R)-N-(1-cyclohexylethyl)-5,6-dihydroxy-2-(3-methylpyridin-2-yl)pyrimidine-4-carboxamide]: the “Proliferation assay HELA TD50” value in the series on HeLa cells was 2.3339 µM. Further, in series [1], the “Proliferation assay PBMC TD50” value is 8.9 µM and the “TD50” value was 8.9 µM.

As to `O=C(NC1(C2CCCCC2)CC1)c1nc(-c2ccccn2)nc(O)c1O` [Compound 24, N-(1-cyclohexylcyclopropyl)-5,6-dihydroxy-2-(pyridin-2-yl)pyrimidine-4-carboxamide], in the series on HeLa cells, the “Proliferation assay HELA TD50” value was determined as 1.5131 µM. Moreover, the “Proliferation assay PBMC TD50” value in series [1] came out at 2.6 µM.

On to `CC1(C)CCC(NC(=O)c2nc(-c3ccccn3)nc(O)c2O)CC1` [Compound 58, N-(4,4-dimethylcyclohexyl)-5,6-dihydroxy-2-(pyridin-2-yl)pyrimidine-4-carboxamide], for which the “Proliferation assay HELA TD50” value with HeLa cells stood at 2.0452 µM. Also, the “Proliferation assay PBMC TD50” value in series [1] came to 1.6 µM.

As to `C[C@@H](NC(=O)c1nc(-c2ccc(Cl)cn2)nc(O)c1O)C1CCCCC1` [Compound 49, (R)-2-(5-chloropyridin-2-yl)-N-(1-cyclohexylethyl)-5,6-dihydroxypyrimidine-4-carboxamide], in the series on HeLa cells, the “Proliferation assay HELA TD50” value worked out at 2.0999 µM. Further, the “Proliferation assay PBMC TD50” value in series [1] worked out at 3.4 µM.

Take `C[C@H](NC(=O)c1nc(-c2nccc3[nH]ccc23)nc(O)c1O)C1CCCCC1` [Compound 86, (S)-N-(1-cyclohexylethyl)-5,6-dihydroxy-2-(1H-pyrrolo[3,2-c]pyridin-4-yl)pyrimidine-4-carboxamide]: the “Proliferation assay HELA TD50” value in the series with HeLa cells is 1.4147 µM.

Take `C[C@@H](NC(=O)c1nc(-c2cc(N3CCN(C)CC3)ccn2)nc(O)c1O)C1CCCCC1` [Compound 76, (R)-N-(1-cyclohexylethyl)-5,6-dihydroxy-2-(4-(4-methylpiperazin-1-yl)pyridin-2-yl)pyrimidine-4-carboxamide]: the “Proliferation assay HELA TD50” value in the series on HeLa cells was 3.6831 µM. In series [1], the “Proliferation assay PBMC TD50” value amounted to 2.5 µM.

As for `O=C(NCC1CCCCC1)c1nc(-c2ncccc2Cl)nc(O)c1O` [Compound 16, 2-(3-chloropyridin-2-yl)-N-(cyclohexylmethyl)-5,6-dihydroxypyrimidine-4-carboxamide], in the series on HeLa cells, the “Proliferation assay HELA TD50” value came to 16.609 µM. Moreover, the “Proliferation assay PBMC TD50” value in series [1] stood at 5.7 µM.

As for `O=C(OCCC1CCCCC1)c1nc(-c2ccccn2)nc(O)c1O` [Compound 12, 2-cyclohexylethyl 5,6-dihydroxy-2-(pyridin-2-yl)pyrimidine-4-carboxylate], the “Proliferation assay HELA TD50” value in the series with HeLa cells is more than 50 µM. The “Proliferation assay PBMC TD50” value in series [1] was determined as 4 µM.

For the compound `Cc1cccnc1-c1nc(O)c(O)c(C(=O)N[C@@H](C)C2CCCCC2)n1` [Compound 39, (S)-N-(1-cyclohexylethyl)-5,6-dihydroxy-2-(3-methylpyridin-2-yl)pyrimidine-4-carboxamide], in the series with HeLa cells, the “Proliferation assay HELA TD50” value came to 0.8788 µM. In addition, the “Proliferation assay PBMC TD50” value in series [1] turned out to be 2.3 µM.

For `COc1cccc(-c2nc(O)c(O)c(C(=O)N[C@H](C)C3CCCCC3)n2)n1` [Compound 37, (R)-N-(1-cyclohexylethyl)-5,6-dihydroxy-2-(6-methoxypyridin-2-yl)pyrimidine-4-carboxamide], in the series with HeLa cells, the “Proliferation assay HELA TD50” value was found to be 0.8976 µM. Moreover, the “Proliferation assay PBMC TD50” value in series [1] worked out at 1.5 µM.

For `O=C(NCC1CCC1)c1nc(-c2cc3ccccc3cn2)nc(O)c1O` [Compound 47, N-(cyclobutylmethyl)-5,6-dihydroxy-2-(isoquinolin-3-yl)pyrimidine-4-carboxamide], in the series on HeLa cells, the “Proliferation assay HELA TD50” value was found to be 3.3326 µM. Further, the “Proliferation assay PBMC TD50” value in series [1] came out at 4.9 µM.

With `COc1ccnc(-c2nc(O)c(O)c(C(=O)NC3CCC(C)(C)CC3)n2)c1` [Compound 77, N-(4,4-dimethylcyclohexyl)-5,6-dihydroxy-2-(4-methoxypyridin-2-yl)pyrimidine-4-carboxamide], in the series with HeLa cells, the “Proliferation assay HELA TD50” value was determined as 2.2578 µM. The “Proliferation assay PBMC TD50” value in series [1] is 2.2 µM.

In the case of `C[C@@H](NC(=O)c1nc(-c2ccc(C(=O)OCc3ccccc3)cn2)nc(O)c1O)C1CCCCC1` [Compound 21, benzyl (R)-6-(4-((1-cyclohexylethyl)carbamoyl)-5,6-dihydroxypyrimidin-2-yl)nicotinate], the “Proliferation assay HELA TD50” value in the series with HeLa cells turned out to be 3.9607 µM. Also, the “Proliferation assay PBMC TD50” value in series [1] is less than 0.4 µM.

`C[C@@H](NC(=O)c1nc(-c2cccc(Cl)n2)nc(O)c1O)C1CCCCC1` [Compound 34, (R)-2-(6-chloropyridin-2-yl)-N-(1-cyclohexylethyl)-5,6-dihydroxypyrimidine-4-carboxamide]: the “Proliferation assay HELA TD50” value in the series with HeLa cells was 8.2296 µM. Further, the “Proliferation assay PBMC TD50” value in series [1] is 5.88 µM.

Take `CC(OC(=O)c1nc(-c2ccccn2)nc(O)c1O)C1CCCCC1` (centres unmarked) [Compound 17, 1-cyclohexylethyl 5,6-dihydroxy-2-(pyridin-2-yl)pyrimidine-4-carboxylate]: in the series with HeLa cells, the “Proliferation assay HELA TD50” value is more than 50 µM. Also, the “Proliferation assay PBMC TD50” value in series [1] came out at 5.5 µM.

Turning to `O=C(OCCCC1CCCCC1)c1nc(-c2ccccn2)nc(O)c1O` [Compound 14, 3-cyclohexylpropyl 5,6-dihydroxy-2-(pyridin-2-yl)pyrimidine-4-carboxylate], the “Proliferation assay HELA TD50” value in the series on HeLa cells was more than 50 µM. Moreover, in series [1], the “Proliferation assay PBMC TD50” value came to 5.6 µM.

Consider `CCNS(=O)(=O)c1ccc(-c2nc(O)c(O)c(C(=O)N[C@H](C)C3CCCCC3)n2)nc1` [Compound 89, (R)-N-(1-cyclohexylethyl)-2-(5-(N-ethylsulfamoyl)pyridin-2-yl)-5,6-dihydroxypyrimidine-4-carboxamide], for which, in the series on HeLa cells, the “Proliferation assay HELA TD50” value was 12.629 µM. Also, in series [1], the “Proliferation assay PBMC TD50” value turned out to be 3.29 µM.

`C[C@@H](NC(=O)c1nc(-c2cccc(C(=O)OCc3ccccc3)n2)nc(O)c1O)C1CCCCC1` [Compound 54, benzyl (R)-6-(4-((1-cyclohexylethyl)carbamoyl)-5,6-dihydroxypyrimidin-2-yl)picolinate]: the “Proliferation assay HELA TD50” value with HeLa cells stood at 24.972 µM. The “Proliferation assay PBMC TD50” value in series [1] was determined as 25 µM.

Turning to `C[C@@H](NC(=O)c1nc(-c2nccc3ccccc23)nc(O)c1O)C1CCCCC1` [Compound 31, (R)-N-(1-cyclohexylethyl)-5,6-dihydroxy-2-(isoquinolin-1-yl)pyrimidine-4-carboxamide], the “Proliferation assay HELA TD50” value with HeLa cells amounted to 2.0709 µM. For the same compound, in series [1], the “Proliferation assay PBMC TD50” value came out at 5 µM and the “TD50” value worked out at 5 µM.

On to `C[C@@H](NC(=O)c1nc(-c2ccc(CN3CCCC3)cn2)nc(O)c1O)C1CCCCC1` [Compound 93, (R)-N-(1-cyclohexylethyl)-5,6-dihydroxy-2-(5-(pyrrolidin-1-ylmethyl)pyridin-2-yl)pyrimidine-4-carboxamide], for which the “Proliferation assay PBMC TD50” value in series [1] is 1.87 µM.

On to `COc1cc(-c2nc(O)c(O)c(C(=O)N[C@H](C)C3CCCCC3)n2)nc2ccccc12` [Compound 68, N-[(1R)-1-cyclohexylethyl]-2-(4-methoxyquinolin-2-yl)-5,6-bis(oxidanyl)pyrimidine-4-carboxamide], for which the “Proliferation assay HELA TD50” value in the series on HeLa cells is 5.7007 µM. The “Proliferation assay PBMC TD50” value in series [1] is 2.66 µM.

Consider `Cc1nnc(C(=O)NC(C)(C)c2nc(C(=O)NCc3ccc(F)cc3)c(O)c(=O)n2C)o1` [Raltegravir™, Raltegravir, reference compound], for which the “TD50” value in series [1] is more than 50 µM.

As to `C[C@@H](NC(=O)c1nc(-c2ccc(CO)cn2)nc(O)c1O)C1CCCCC1` [Compound 55, (R)-N-(1-cyclohexylethyl)-5,6-dihydroxy-2-(5-(hydroxymethyl)pyridin-2-yl)pyrimidine-4-carboxamide], the “Proliferation assay HELA TD50” value in the series with HeLa cells was 1.4665 µM.

For the origin of these results see patent EP3290412A1, “HIV-1 NUCLEOCAPSID INHIBITORS” (Università degli Studi di Siena, priority 2016, dated 2018).
